Data as given in patent US20250382298A1, “NITROGEN-CONTAINING COMPOUND AND USE THEREOF” (SUZHOU GENHOUSE BIO CO., LTD., priority 2022, published 2025).
pEC50, pIC50: −log10 of the molar value.

Key:
[1] = tested on: OVCAR3 cells; experiment: Detection of OVCAR3 cell proliferation activity by CTG method; type: cell-based; settings: Homo sapiens, OVCAR-3, 168 h, CellTiter-Glo, 7 days
Text: (§1) This assay can be used to examine the potency of compounds in inhibiting the proliferation of tumor cells (OVCAR3, HT-29, BT-549, HCT-116). A lower IC50 value indicates high potency of the compound as a KIF18A inhibitor in the following assay setup,
1640 medium; fetal bovine serum; penicillin/streptomycin antibiotics purchased from Wisent; CellTiter-Glo (chemiluminescence detection reagent for cell viability) reagent purchased from Promega; OVCAR3 cell line purchased from Nanjing Cobioer Biosciences Co., Ltd.; Nivo multimode microplate reader (PerkinElmer),
OVCAR3 cells were seeded into a white 96-well plate, with 80 μL of cell suspension containing 2000 OVCAR3 cells added to each well. The cell plate was incubated in a CO2 incubator overnight.
A test compound was 5-fold diluted to the 8th concentration (i.e., from 2 mM to […]) using a multichannel pipette, with duplicate wells set up. To an intermediate plate was added 78 μL of medium, and the serially diluted compound was transferred to the corresponding wells of the intermediate plate at 2 μL/well. The mixture was mixed well and then transferred to the cell plate at 20 μL/well. The concentration of the compound transferred to the cell plate ranged from 10 μM to 0.026 nM. The cell plate was incubated in a CO2 incubator for 7 days. Another cell plate was prepared and read for signal values on the day of compound addition, and these values were used as the maximum values (the Max value in the equation below) in data analysis. To this cell plate was added the chemiluminescence detection reagent for cell viability at 25 μL/well, and the luminescence signals were stabilized by incubation at room temperature for 10 min. Readings were taken using the multimode microplate reader.
To the cell plate was added the chemiluminescence detection reagent for cell viability at 25 μL/well, and the luminescence signals were stabilized by incubation at room temperature for 10 mm. Readings were taken using the multimode microplate reader, […]

[2] = tested on: OVCAR3 cells; experiment: Detection of cell proliferation activity by CCK8 method (OVCAR3); type: cell-based
Text: as §1
(§2) McCoy's 5A medium purchased from Sangon Biotech; CCK8 kit purchased from Beyotime; OVCAR3, HT-29, HCT-116, and BT-549 cells purchased from Shanghai Fuheng Biotechnology Co., Ltd.; multimode microplate reader (Thermo).
(§3) Cells at the logarithmic growth phase were taken, digested with a cell lysis buffer (trypsin), centrifuged, counted, and seeded into a 96-well plate at an appropriate cell density (BT549: 1500 cells/well in 1640 medium. HT-29 and HCT-116: 2000 cells/well in McCoy's 5A medium), with 180 μL per well, for a total of 60 wells. The surrounding wells were filled with an equal amount of PBS to prevent water evaporation from the edge wells. The next day after cell plating, the test compounds at different concentration gradients (with an initial final concentration of 10 μM, diluted in a 1:5 gradient to obtain 9 concentration gradients) were added to the wells. Three replicate wells were set up for each concentration point, and a corresponding DMSO negative control group was also set up. Detection: After 96 h of drug treatment, the test cell culture plate was removed from the incubator. All the liquid in the 96-well plate was aspirated, and 100 μL of medium containing 10% CCK8 solution was added to each well. The plate was then incubated at 37° C. for 2 h (the OD450 of the DMSO group reached 1.5 or more), and the absorbance at 450 nm was measured using a microplate reader
(§4) After the background value was subtracted from the measurement for each well, the inhibition rate was calculated. Inhibition Rate (%)=(1−Sample/Vehicle)×100. Sample is the luminescence value of the drug treatment group, and Vehicle is the luminescence value of the DMSO control group. A sigmoidal dose-survival rate curve was plotted using a non-linear regression model in the GraphPad Prism 7.0 software, and the IC50 values were calculated.

[3] = tested on: HT-29 cells; experiment: Detection of cell proliferation activity by CCK8 method (HT-29); type: cell-based, human; settings: CCK8, 96 h
Text: as §1, §2, §3, §4

[4] = tested on: BT-549 cells; experiment: Detection of cell proliferation activity by CCK8 method (BT-549); type: cell-based; settings: CCK8, 96 h
Text: as §1, §2, §3, §4

[5] = tested on: HCT-116 cells; experiment: Detection of cell proliferation activity by CCK8 method (HCT-116); type: cell-based; settings: CCK8, 96 h
Text: as §1, §2, §3, §4

[6] = tested on: HT-29 cells; experiment: Mitotic index analysis, pH3 expression in HT-29 cells; type: cell-based, human; settings: Homo sapiens, 24 h treatment
Experimental: (§5) HCT-116 and HT-29 cells at the logarithmic growth phase were taken, digested with a cell lysis buffer (trypsin), centrifuged, counted, and seeded into a 96-well plate at an appropriate cell density (20000 cells/well), with 100 μL per well. The surrounding wells were filled with an appropriate amount of PBS to prevent water evaporation. The next day, the cells were treated with the compounds at different concentrations (with a starting concentration of 10 μM, 3-fold diluted to obtain 9 concentration gradients). After 24 h, the medium was aspirated, and the cells were washed twice with 100 μL of PBS. The cells were then fixed with 4% paraformaldehyde and incubated at room temperature for 15 min. The fixative solution was discarded, and the cells were washed with PBS. Then, 150 μL of specialized blocking solution (containing 1% Triton-100) was added to each well for blocking at room temperature for 2 h, and the plate was washed with PBS to remove excess blocking solution. Anti-phistone H3 (pH3) was diluted at a ratio of 1:1000 with a blocking solution containing 0.033% Triton-100, and a blank control group was set up. Then, incubation was performed at 4° C. overnight. The next day, the plate was washed twice with 1×PBST. Anti-rabbit-IgG (H+L) (CST) and DRAQ5 (Thermofisher) were each diluted at an appropriate ratio with a blocking solution containing 0.033% Triton-100 (secondary antibody: 1:2000; DRAQ5: 1:10000). Then, incubation was performed at room temperature for 2 h. The plate was washed twice with 1×PBST and once with PBS. Fluorescence signals at 700 nm and 800 nm were detected using a Li—COR Odyssey two-color near-infrared laser imager. Calculation was performed as follows: pH3 expression (%)=(Cmpd dose/DMSO control)×100. Cmpd dose is the value of the drug treatment group, and DMSO control is the value of the DMSO control group. The EC50 values were determined by fitting using the GraphPad Prism 7.0 software.

[7] = tested on: HCT-116 cells; experiment: Mitotic index analysis, pH3 expression in HCT-116 cells; type: cell-based; settings: 24 h treatment
Experimental: as §5

[8] = Pharmacokinetic test in mice; type: in vivo; settings: BALB/c mice, PO @30mpk; for AUC / Cmax / half-life: mouse, plasma, 30 mg/kg; for half-life: read-out: t½ (converted)
Experimental: In this example, the pharmacokinetic behavior of the compounds after intravenous injection (IV) and intragastric (PO) administration in BALB/c mice was tested.
On the day of administration, mice were weighed for actual body weight and the administration volume was calculated. Each compound was tested in two groups with 9 mice in each group; one group was subjected to administration by single intravenous injection, and the other group of mice was subjected to single intragastric administration. Whole blood samples were collected via the orbit at prescribed time points (0.25 h, 0.5 h, 1 h, 2 h, 4 h, 8 h, and 24 h after administration). After blood sample collection, the samples were immediately transferred to labeled commercial sample tubes containing K2-EDTA (0.85-1.15 mg), followed by centrifugation (3200×g, 4° C., 10 min) and plasma collection. The plasma was transferred to a pre-cooled centrifuge tube, frozen in dry ice, and then stored in an ultra-low temperature freezer at −60° C. or lower until the LC-MS/MS analysis.
Plasma concentrations were determined by the LC-MS/MS method. Plasma drug concentration data for the compounds were processed using a non-compartmental model in the WinNonlin Version 6.3 (Pharsight, Mountain View, CA) pharmacokinetic software. The relevant pharmacokinetic parameters were calculated by a linear-log trapezoidal method.

[9] = target: KIF18A (Homo sapiens (Human), UniProt Q8NI77); experiment: KIF18A enzymatic activity inhibition, ADP-Glo kit; type: biochemical; settings: 4 nM KIF18A, 30 μM ATP
Experimental: In this experiment, an ADP-Glo kit was used to detect the inhibitory activity of the compounds against KIF18A. Each compound was prepared into a 10 mM stock solution with DMSO, which was then diluted at 1:5 to obtain 9 gradients with the initial final concentration set at 10 μM. Meanwhile, a control group and a blank group were also set up. The reaction buffer consisted of 15 mM Tris (pH 7.5), 10 mM MgCl2, and 0.01% Pluronic F-68. 4 nM KIF18A (1467) and the test compound were added to a 384-well plate and incubated at 37° C. for 20 mm. Then, 30 μM ATP was added to initiate the enzymatic reaction, and the plate was incubated at room temperature for 15 min. Finally, the ADP-Glo reagent was added to detect the luminescence intensity, where the luminescence intensity is directly proportional to the ADP content. Inhibition rate (%)=[…]. Sample signal is the value of the compound group, and DMSO signal is the value of the DMSO control group. Then, the inhibition rate at each concentration was calculated, and the IC50 was determined by fitting using the GraphPadPrism 7.0 software.

[10] = Homo sapiens, OVCAR-3, CCK8, 96 h

Sequence of KIF18A (Q8NI77 1-467): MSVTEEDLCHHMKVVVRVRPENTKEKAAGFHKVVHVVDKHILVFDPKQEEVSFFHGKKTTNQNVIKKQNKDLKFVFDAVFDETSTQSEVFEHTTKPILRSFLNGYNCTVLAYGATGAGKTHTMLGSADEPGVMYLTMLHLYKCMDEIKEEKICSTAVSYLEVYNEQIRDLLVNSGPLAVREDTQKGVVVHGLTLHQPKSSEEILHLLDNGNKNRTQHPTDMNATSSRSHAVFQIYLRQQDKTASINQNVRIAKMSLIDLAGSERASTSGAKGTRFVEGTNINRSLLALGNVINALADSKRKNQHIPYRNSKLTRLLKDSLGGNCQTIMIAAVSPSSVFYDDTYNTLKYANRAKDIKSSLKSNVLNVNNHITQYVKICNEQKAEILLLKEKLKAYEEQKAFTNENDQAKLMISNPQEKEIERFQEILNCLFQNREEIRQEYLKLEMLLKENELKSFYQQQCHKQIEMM

Structure (SMILES) | pIC50 [1] | pIC50 [2, 10] | pIC50 ([3]; Homo sapiens) | pIC50 ([4]; Homo sapiens) | pIC50 ([5]; Homo sapiens) | pEC50 [6] | pEC50 ([7]; Homo sapiens) | F [8] | AUC [8] | Cmax [8] | half-life [8] | pIC50 ([2]; CCK8, 96 h) | pIC50 [4] | pIC50 [5] | pIC50 [9] | pEC50 [7] | pIC50 [3]
O=C(Nc1cn2ccnc2c(N2CCC3(CC2)CC3)n1)c1ccc(NS(=O)(=O)CCO)cc1N1CCC2(CC1)CC2 [Compound 31] | 7.17 | 7.38 | 7.03 | 6.96 | < 5.00 | 7.19 | < 5.00 |  |  |  |  |  |  |  |  |  | 
CS(=O)(=O)Nc1ccc(C(=O)Nc2cc3cccnc3c(N3CCC(F)(F)CC3)n2)c(N2CCC3(CC2)CC3)c1 [Compound 32] | 7.52 | 7.65 | 7.34 | 7.34 | < 5.00 | 7.21 | < 5.00 |  |  |  |  |  |  |  |  |  | 
CS(=O)(=O)Nc1ccc(C(=O)Nc2cc3cccnc3c(N3CCC(F)(F)CC3)n2)c(N2CC3CCC(C3)C2)c1 [Compound 33] | 7.12 | 7.27 | 7.07 | 6.93 | < 5.00 | 7.23 | < 5.00 | 108% | 126 µM·h | 6.31 µM | 134 h |  |  |  |  |  | 
O=C(Nc1cn2ccnc2c(N2CCC(F)(F)CC2)n1)c1ncc(NS(=O)(=O)CCO)cc1N1CCC2(CC1)CC2 [Compound 37] |  |  |  |  |  |  |  |  |  |  |  | 6.63 | 6.21 | < 5.00 | 7.95 | < 5.00 | 
O=C(Nc1cn2ccnc2c(N2CCC(F)(F)CC2)n1)c1cnc(NS(=O)(=O)CCO)cc1N1CCC2(CC1)CC2 [Compound 38] |  |  |  |  |  |  |  |  |  |  |  | 7.92 | 7.50 | < 5.00 | 8.12 | < 5.00 | 6.88
O=C(Nc1cc2ncccc2c(N2CCC(F)(F)CC2)n1)c1ccc(NS(=O)(=O)CCO)cc1N1CCC2(CC1)CC2 [Compound 40] |  | 7.17 | 6.75 | 6.66 | < 5.00 |  | < 5.00 |  |  |  |  |  |  |  | 7.20 |  | 
CS(=O)(=O)Nc1ccc(C(=O)Nc2cn3c(F)cnc3c(N3CCC(F)(F)CC3)n2)c(N2CC3CCC(C3)C2)c1 [Compound 52] |  | 7.28 | 7.12 | 6.68 | < 5.00 | 7.37 | < 5.00 | 107% | 269 µM·h | 14.1 µM | 39 h |  |  |  | 7.66 |  | 
Cn1ncc2cc(NC(=O)c3ccc(NS(C)(=O)=O)cc3N3CC4CCC(C4)C3)nc(N3CCC(F)(F)CC3)c21 [Compound 56] |  | 7.79 | 7.60 | 6.92 | < 5.00 | 7.87 | < 5.00 | 142% | 436 µM·h | 23.6 µM | 80.8 h |  |  |  | 7.39 |  | 
CS(=O)(=O)Nc1ccc(C(=O)Nc2cc3nccnc3c(N3CCC(F)(F)CC3)n2)c(N2CCC3(CC2)CC3)c1 [Compound 70] |  | 7.50 | 7.16 | 7.04 | < 5.00 | 7.47 | < 5.00 |  |  |  |  |  |  |  | 7.02 |  | 
